The values that follow come from patent US10278873B2, “Absorbent article having a domed section and method of manufacturing same” (UNICHARM CORPORATION, priority 2011, dated 2019).

Molecules are shown by their SMILES.

This test is described as follows: Surface tension of blood containing blood modifying agent, pendant drop method (Example 7). The conditions noted are these: 0.10 mass % in sheep defibrinated blood; 35° C. The protocol: The surface tension of blood containing a blood modifying agent was measured by the pendant drop method, using a Drop Master500 contact angle meter by Kyowa Interface Science Co., Ltd. The surface tension was measured after adding a prescribed amount of blood modifying agent to sheep defibrinated blood, and thoroughly shaking.
The measurement was accomplished automatically with a device, and the […] γ was determined by the following formula (see FIG. 98). γ=g×ρ×(de)^2×1/H
The density ρ was measured at the temperatures listed in Table 5, according to JIS K 2249-1995, “Density test methods and density/mass/volume conversion tables”, “5. Vibrating density test method”.
The measurement was accomplished using a DA-505 by Kyoto Electronics Co., Ltd.

As for `CCCCCCCCCCCCOC(=O)CCCCCCCCCCC` [No. 2-18, Ester of dodecanoic acid (C12) and dodecyl alcohol (C12)], the “Surface tension (mN/m)” value was found to be 58.8 mN/m.
